Data from patent publication US12350250B2, “Aggrelytes for treating ocular conditions” (The Regents of the University of Colorado, a Body Corporate, priority 2022, dated 2025).

Tests used:
[1] = system: αB-crystallin (αBC); test: Crystallin levels in solubilized human lens proteins (Western blot), αBC; assay type: biochemical; details: 500 μM, solubilized proteins of three human lenses; not significant
Description: (§1) The contents of crystalline proteins [αA-crystallin (αAC), αB-crystallin (αBC), β-crystallin (βC), and γ-crystallin (γC)] in the solubilized proteins of three human lenses treated with either Aggrelyte-2 or Aggrelyte-2C (500 μM) from Example 4 were determined by Western blot analysis as described for Example 5. Membranes were incubated with antibodies against αAC (1:14,000 dilution; Enzo Life Sciences, Catalog #ADI-SPA-221D), αBC (1:700,000 dilution; University of Iowa), βC (1:14,000 dilution; Santa Cruz Biotechnology, Catalog #sc-22745), and γC (1:7,000 dilution; Santa Cruz Biotechnology, Catalog #sc-22746). The secondary antibodies were HRP-conjugated anti-mouse IgG for αBC and HRP-conjugated […] (Cell Signaling Technology, Catalog #7074S) for αAC, βC, and γC. According to the supplier, the […] detects mostly βB1-crystallin and, to a lesser extent, βA1/3, βA2, βA4, βB2, and βB3-crystallin. The γC antibody reacts with γA, γB, γC, γD, γE, and γF-crystallin.

[2] = target: T1, αA-crystallin (αAC) (Homo sapiens, UniProt P02489); test: Relative protein acetylation capability on recombinant αAC; assay type: biochemical; details: 500 μM acetylating agent, αAC 3 mg/mL, 24 hours, 37° C.
T1 sequence (P02489 1-173): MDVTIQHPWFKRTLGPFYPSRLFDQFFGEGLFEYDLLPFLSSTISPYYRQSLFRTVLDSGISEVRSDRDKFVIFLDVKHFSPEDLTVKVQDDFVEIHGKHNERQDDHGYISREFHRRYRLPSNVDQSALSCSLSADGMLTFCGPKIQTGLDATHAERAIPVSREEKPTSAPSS
Description: The relative ability of Aggrelyte-2 to acetylate lysine residues in proteins was investigated using αA-crystallin (αAC). Human recombinant αAC (3 mg/mL PBS) was incubated in 50 mM sodium phosphate buffer, pH 7.4, for 24 hours at 37° C. while shaking without or with 500 μM acetylating agent (Aggrelyte-2, acetyl-CoA, acetic anhydride, or aspirin), dialyzed against PBS for 24 hours at 4° C.

[3] = system: human lenses; test: AcK-bearing proteins in WS cortical and nuclear fractions of treated human lenses (Western blot); details: 1 mM, 72 h, vs untreated controls
Description: For Western blotting, 10-20 μg of protein from each lens sample was used and each sample was separately processed three times and analyzed.

[4] = system: γ-crystallin (γC); test: Crystallin levels in solubilized human lens proteins (Western blot), γC; assay type: biochemical; details: 500 μM, solubilized proteins of three human lenses
Description: as §1

[5] = system: mouse lenses; test: Stiffness and axial strain of ex vivo mouse lenses (Example 10); parameters: species or system mouse (C57BL/6J); details: 1 mM, 24 hours, 100 mg load
Description: In this example, the lenses were dissected from the eyes of mice (C57BL/6J, 5-8 months old, Jackson Laboratories, Stock No. 000664, n=4-5) by a posterior approach and incubated without (“Control”) or with Aggrelyte-2 or Aggrelyte-2C (1 mM) for 24 hours in serum-free and phenol-red-free MEM (297 mOsm) at 37° C. Lens stiffness was measured as previously described in Baradia, H. et al., (2010) Exp. Eye Res. 91, 300-307. Briefly, the lens was placed on a flat platform with the anterior side facing up, and a load was applied to the top of the lens at 100 mg increments for mouse lenses and at 250 mg increments for human lenses. The displacement in the lens axial diameter (in μm or mm) was measured using MATLAB software developed by Dr. Adrian Glasser, UK, and plotted against the load applied. The displacement at a specific load was used to determine differences in lens stiffness between the untreated control and aggrelyte-treated lenses.
Freshly obtained human lenses (42-68 years old, n=10-12) were incubated with or without Aggrelyte-2 or Aggrelyte-2C (1 mM) for a total of 72 h in phenol red-free MEM with a change in media containing freshly dissolved aggrelytes every 24 h. One lens from each donor pair was used as the control, and the other was treated with aggrelyte. After incubation, the lens stiffness was measured as described above. Axial strain was also calculated based on the following formula: […]

[6] = system: AcK in solubilized WI protein of human lenses; test: AcK in solubilized human lens proteins (LC-MS/MS); assay type: biochemical; details: 500 μM, 24 hours; for AcK level: solubilized WI protein, human lenses (55-67 years)
Description: Water-insoluble proteins were prepared from aged human lenses (55-67 years) as described in Example 3, and incubated with 0 or 500 μM Aggrelyte-2 or Aggrelyte-2C for 24 hours as described in Example 3. Solubilized WI protein fractions (0.5 mg/mL) and water soluble (WS) protein fractions (3 mg/mL from human lenses) were sequentially digested with enzymes as previously described (Nandi et al., 2019, Biochemistry, 58(9):1260-1274). The enzyme-digested samples were analyzed for AcK by LC-MS/MS using the standard addition method as previously described (id.) The AcK levels were calculated based on the protein input in the enzymatic digestions.

[7] = Stability of aggrelytes under physiological conditions (1H-NMR); assay type: physicochemical; details: 50 mM phosphate buffer, pH 7.4, 37° C.; for degraded during 3-day incubation: 3 days; for degraded during 7-day incubation: 7 days
Description: Aggrelyte-2 (N,S-diacetyl-L-cysteine methyl ester; Astatech Catalog #D95910) and Aggrelyte-2C (N-acetyl cysteine methyl ester; Sigma Aldrich Catalog #01042) (2 mg each) were incubated in 1 mL of 50 mM phosphate buffer, pH 7.4, at 37° C. Aliquots were withdrawn immediately after incubation (Day 0) and after 1, 3, and 7 days. Stability of the aggrelytes was tested using ^1H-NMR (in DMSO-d6) spectroscopy. The NMR peak integration values for the S-acetyl or N-acetyl cysteine methyl proton were compared with the cysteine methine proton.

[8] = system: human lenses; test: Water-soluble (WS) protein content of aggrelyte-treated human lenses; details: 1 mM, 72 h
Description: Water soluble (WS) proteins were obtained from both mouse and human lenses. For mouse lenses, WS protein was obtained by homogenizing each mouse lens in 0.2 mL of PBS, followed by centrifugation at 20,000×g for 20 min at 4° C. […] The remaining nucleus was homogenized in 1 mL phosphate buffer. Both cortical and nuclear protein extracts were centrifuged at 20,000×g for 20 min at 4° C. to obtain the soluble protein in the supernatant. In another set of experiments, human lenses (42-64 years), following incubation with aggrelytes as described in the foregoing examples, were each homogenized with 1.5 mL 50 mM phosphate buffer, pH 7.4. The homogenate was centrifuged at 20,000×g for 20 min to obtain a supernatant. Protein in the supernatant was evaluated to determine the effect of aggrelyte treatment on the soluble protein content in the lens.

Row | SMILES | levels of αBC, fold higher than in the Aggrelyte-2C-treated samples [1] [fold] | levels of αBC, fold higher than in the Controls [1] [fold] | rank order of acetylating agents [2] | AcK levels, cortical protein fraction (Western blot) [3] | AcK levels, nuclear protein fraction (Western blot) [3] | levels of γC vs Controls [4] | lens stiffness vs untreated control lenses ([5]; 6-month-old mouse lenses) | axial strain vs controls ([5]; mouse lenses) | displacement, % greater than that by Aggrelyte-2C ([5]; mouse lenses, not significantly greater) [%] | AcK levels, fold increase compared to Aggrelyte-2C-treated samples ([6]; combined mean values) [fold] | AcK levels, fold increase compared to untreated controls ([6]; combined mean values) [fold] | AcK level [6] | degraded during 3-day incubation [7] [%] | degraded during 7-day incubation [7] [%] | WS content, % higher than in the untreated controls (contralateral lenses) [8] [%]
1 | COC(=O)[C@H](CSC(C)=O)NC(C)=O [Aggrelyte-2, N,S-diacetyl-L-cysteine methyl ester] | 1.1 | 1.2 | followed by Aggrelyte-2, aspirin, and acetyl-CoA | significantly increases | significantly increases | slightly but not significantly higher | significantly (p<0.05) reduced the stiffness | significantly (p<0.05) reduced the axial strain | 8.7 | 2.4 | 1.9 | 1.5-2.1 nmol/mg protein | 30 | 42 | 13.2
2 | COC(=O)[C@H](CS)NC(C)=O [Aggrelyte-2C, N-acetyl-L-cysteine methyl ester] |  |  |  | not statistically different | not statistically different | no effect |  | did not have a significant effect |  |  |  | 0.6-0.9 nmol/mg protein | 21 | 37 | 4.6
